Measured values published in patent US4810779A, “Decapeptides having hypotensive action and process for their preparation” (Enichem Elastomeri S.p.A., priority 1985, dated 1989).
Where two headings read alike, the source gives them in different places. Where a SMILES comes first, the peptide text is derived from it. [ ]: non-standard residue; d: D form. pGlu = O=C1CC[C@@H](C(=O)O)N1; Orn = NCCC[C@H](N)C(=O)O

How the values were obtained:
arterial pressure [1] = assay: Effect of the decapeptides on arterial pressure (injection into femoral vein of anaesthetized rats); type: in vivo, C.D. male rats; conditions: for Duration of hypotensive effect / Pressure Difference Maximum / Pressure Difference Minimum / hypotensive effect (in words): femoral vein; for Duration of hypotensive effect / Pressure Difference Maximum / Pressure Difference Minimum: anaesthetized rats
Description: (§1) The activity of the decapeptides of the present invention has been determined in vivo on C.D. male rats available from Charles-River Co., anesthetized by ethyl urethane.
(§2) The effect on the arterial pressure and on bradykinin potentating has been studied by injecting into femoral vein a decapeptide (I) in an amount of from 0.3 to 0.2 mg/kg of body weight.
Five C.D. male rats available from Charles River Co., of weight of 200-300 g, anaesthetized by ethyl urethane (1.75 g/kg by intraperitoneal way) are used.
After tracheal cannulating, the right-hand carotid artery is isolated and connected by cannula to a Hewlett-Packard Model 1280 pressure transducer.
From isolated left-hand carotid the arterial flow is recorded by means of Biotronex® electromagnetic flowmeter, and pressure variation wiith the (dp/dt), electrocardiogram (ECG) and the beats per minute (BPM) are recorded on Hewlett Packard Polygraph.
The decapeptides of the present invention have been tested by being injected into right-hand femoral vein at the dose of 0.3-0.2 mg/kg of body weight, and compared to the decapeptide (II) of the prior art.

arterial pressure [2] = conditions: injected into the femoral vein of rats; cited from earlier work
bradykinin = assay: Effect of decapeptides as bradykinin potentiators (injection into femoral vein soon before bradykinin); type: in vivo, Male C.D. rats; conditions: for Duration of hypotensive effect (t) / Pressure Difference Maximum / Pressure Difference Minimum: bradykinin potentiation, femoral vein soon before bradykinin; for potentiation of the hypotensive effect / activity of bradykinin (in words): in vivo, male rats
Description: as §1, §2
Male C.D. rats of Charles-River race are treated as described in Example 8, and submitted to test by bradykinin.
Bradykinin is a physiologic peptide which, when injected into femoral vein, causes a fast but not long-lasting hypotensive effect, because it is rapidly degraded at pulmonary circulation level by the Angiotensin Conversion Enzyme (ACE).
The peptides of the present invention are tested by being injected into the right-hand femoral vein soon before bradykinin, and comparing them to the decapeptide of the prior art.

arterial pressure [3] = conditions: cited from earlier work

| Structure (SMILES) | Duration of hypotensive effect (arterial pressure [1]; 0.3 mg/kg) | Pressure Difference Maximum (arterial pressure [1]; 0.3 mg/kg) | Pressure Difference Minimum (arterial pressure [1]; 0.3 mg/kg) | lowering in arterial pressure (arterial pressure [2]) | potentiation of the activity of bradykinin (arterial pressure [2]) | Duration of hypotensive effect (t) (bradykinin; 0.3 mg/kg) | Pressure Difference Maximum (bradykinin; 0.3 mg/kg) | Pressure Difference Minimum (bradykinin; 0.3 mg/kg) | eurhythmizing effect (arterial pressure [1]; in vivo, male rats) | hypotensive effect (in words) (arterial pressure [1]; in vivo, male rats) | potentiation of the hypotensive effect / activity of bradykinin (in words) (bradykinin) | Duration of hypotensive effect (arterial pressure [1]; 0.2 mg/kg) | Pressure Difference Maximum (arterial pressure [1]; 0.2 mg/kg) | Pressure Difference Minimum (arterial pressure [1]; 0.2 mg/kg) | Duration of hypotensive effect (t) (bradykinin; 0.2 mg/kg) | Pressure Difference Maximum (bradykinin; 0.2 mg/kg) | Pressure Difference Minimum (bradykinin; 0.2 mg/kg) | antihypertensive action (arterial pressure [3]; administered orally) | antihypertensive action (arterial pressure [3]; intravenous administration) |
| --- | --- | --- | --- | --- | --- | --- | --- | --- | --- | --- | --- | --- | --- | --- | --- | --- | --- | --- | --- |
| CC[C@H](C)[C@H](NC(=O)[C@H](CCC(N)=O)NC(=O)[C@@H]1CCCN1C(=O)[C@H](CCCNC(=N)N)NC(=O)[C@@H]1CCCN1C(=O)[C@H](Cc1c[nH]c2ccccc12)NC(=O)[C@H](CC(C)C)NC(=O)[C@@H]1CCC(=O)N1)C(=O)N1CCC[C@H]1C(=O)N1CCC[C@H]1C(=O)O [Decapeptide II, Glp-Leu-Trp-Pro-Arg-Pro-Gln-Ile-Pro-Pro-OH, reference compound] ([pGlu]LWPRPQIPP-OH) | 10 min | 15 mmHg | 15 mmHg | causes a lowering in arterial pressure | potentiates the activity of bradykinin, prolonging the hypotensive effect thereof | 10 min | 15 mmHg | 15 mmHg | – | – | – | – | – | – | – | – | – | – | – |
| CC[C@H](C)[C@H](NC(=O)[C@H](CCC(N)=O)NC(=O)[C@@H]1CCCN1C(=O)[C@H](CCCN)NC(=O)[C@@H]1CCCN1C(=O)[C@H](Cc1c[nH]c2ccccc12)NC(=O)[C@H](CC(C)C)NC(=O)[C@@H]1CCC(=O)N1)C(=O)N1CCC[C@H]1C(=O)N1CCC[C@H]1C(=O)O [Decapeptide III, Glp-Leu-Trp-Pro-Orn-Pro-Gln-Ile-Pro-Pro-OH] ([pGlu]LWP[Orn]PQIPP-OH) | > 10 min | 20 mmHg | 25 mmHg | – | – | 90 min | 15 mmHg | 15 mmHg | shows an eurhythmizing effect | stronger and more long-lasting hypotensive effect than decapeptide (II) | potentiates the hypotensive effect of bradykinin | – | – | – | – | – | – | – | – |
| CC(C)C[C@H](NC(=O)[C@@H]1CCC(=O)N1)C(=O)N[C@@H](Cc1c[nH]c2ccccc12)C(=O)N1CCC[C@H]1C(=O)N[C@@H](CCCN)C(=O)N1CCC[C@H]1C(=O)N[C@@H](Cc1c[nH]cn1)C(=O)N[C@H](C(=O)N1CCC[C@H]1C(=O)N1CCC[C@H]1C(=O)O)C(C)C [Decapeptide IV, Glp-Leu-Trp-Pro-Orn-Pro-His-Val-Pro-Pro-OH] ([pGlu]LWP[Orn]PHVPP-OH) | – | – | – | – | – | – | – | – | – | cause in vivo a hypotensive effect | potentiate the activity of bradykinin | < 10 min | 20 mmHg | 25 mmHg | 45 min | 25 mmHg | 30 mmHg | – | – |
| CC(C)C[C@H](NC(=O)[C@@H]1CCC(=O)N1)C(=O)N[C@@H](Cc1c[nH]c2ccccc12)C(=O)N1CCC[C@H]1C(=O)N[C@@H](CCCNC(=N)N)C(=O)N1CCC[C@H]1C(=O)N[C@@H](Cc1c[nH]cn1)C(=O)N[C@H](C(=O)N1CCC[C@H]1C(=O)N1CCC[C@H]1C(=O)O)C(C)C [Decapeptide V, Glp-Leu-Trp-Pro-Arg-Pro-His-Val-Pro-Pro-OH] ([pGlu]LWPRPHVPP-OH) | – | – | – | – | – | – | – | – | – | cause in vivo a hypotensive effect | potentiate the activity of bradykinin | < 10 min | 15 mmHg | 15 mmHg | 30 min | 15 mmHg | 30 mmHg | – | – |
| CC[C@H](C)[C@H](NC(=O)[C@H](CCC(N)=O)NC(=O)[C@@H]1CCCN1C(=O)[C@H](CCCNC(=N)N)NC(=O)[C@@H]1CCCN1C(=O)[C@H](Cc1c[nH]c2ccccc12)NC(=O)[C@@H]1CCC(=O)N1)C(=O)N1CCC[C@H]1C(=O)N1CCC[C@H]1C(=O)O [Teprotide] | – | – | – | – | – | – | – | – | – | – | – | – | – | – | – | – | – | inactive when administered orally | powerful antihypertensive agent |
